# Measurements as given in BindingDB's records for doi:10.3109/14756366.2011.643304 (Umeå University, 2013).
# Target: T1, Fatty-acid amide hydrolase 1 [30-579] (Rattus norvegicus, UniProt P97612)
# T1 construct: 30-579
# T1 sequence (P97612 whole entry): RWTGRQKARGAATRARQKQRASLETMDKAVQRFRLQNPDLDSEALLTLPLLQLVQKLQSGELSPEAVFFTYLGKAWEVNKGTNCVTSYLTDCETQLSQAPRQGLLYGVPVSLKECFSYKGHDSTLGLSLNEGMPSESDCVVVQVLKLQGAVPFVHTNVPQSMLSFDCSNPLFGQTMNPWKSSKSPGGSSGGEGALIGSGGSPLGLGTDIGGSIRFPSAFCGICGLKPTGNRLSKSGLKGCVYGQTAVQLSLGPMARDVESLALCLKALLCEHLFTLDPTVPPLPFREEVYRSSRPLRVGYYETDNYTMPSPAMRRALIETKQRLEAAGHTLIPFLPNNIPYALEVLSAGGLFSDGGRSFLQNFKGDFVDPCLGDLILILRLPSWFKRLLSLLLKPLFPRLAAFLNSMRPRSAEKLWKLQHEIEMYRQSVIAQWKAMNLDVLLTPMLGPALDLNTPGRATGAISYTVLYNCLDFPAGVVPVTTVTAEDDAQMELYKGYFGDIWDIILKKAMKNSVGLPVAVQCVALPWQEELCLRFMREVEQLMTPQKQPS
# Experiment: FAAH Assay
# Settings: pH 7; 4 °C
row,SMILES,IC50 [µM]
1,Cc1cccnc1NC(=O)CCNC(=O)C(C)c1ccc(CC(C)C)cc1 (configuration not stated) [2-(4-Isobutylphenyl)-N-(3-(3-methylpyridin-2-ylamino)-3-oxopropyl)propanamide (11)],9.3
2,Cc1cccnc1OC(=O)C(C)c1ccc(CC(C)C)cc1 (configuration not stated) [3-Methylpyridin-2-yl 2-(4-isobutylphenyl)propanoate (3)],115
3,Cc1cccnc1NC(=O)C(C)c1ccc(CC(C)C)cc1 (configuration not stated) [2-(4-isobutylphenyl)-N-(3-methylpyridin-2-yl)propanamide],0.65

# The next lines start with the values.
row,IC50 [µM],SMILES
1,1.5,CC(=O)Nc1ccc(OC(=O)CNC(=O)C(C)c2ccc(CC(C)C)cc2)cc1 (configuration not stated) [4-Acetamidophenyl 2-(2-(4-isobutylphenyl)propanamido)acetate (8)]
2,150,Cc1cccc(NC(=O)CNC(=O)C(C)c2ccc(CC(C)C)cc2)n1 (configuration not stated) [2-(4-Isobutylphenyl)-N-(2-(6-methylpyridin-2-ylamino)-2-oxoethyl)propanamide (10)]
3,37,CC(C)Cc1ccc(C(C)C(=O)NCC(=O)NCc2cccnc2)cc1 (configuration not stated) [2-(4-Isobutylphenyl)-N-(2-oxo-2-(pyridin-3-ylmethylamino)ethyl)propanamide (13)]
4,90,CC(C)Cc1ccc(C(C)C(=O)NCC(=O)NCc2ccccn2)cc1 (configuration not stated) [2-(4-Isobutylphenyl)-N-(2-oxo-2-(pyridin-2-ylmethylamino)ethyl)propanamide (12)]
